Laboratory results published in ChEMBL document CHEMBL1909046, “DrugMatrix in vitro pharmacology data”.
pIC50: −log10 of the molar value.

Assays:
[1] = target: Beta-3 adrenergic receptor (Homo sapiens, UniProt P13945); assay: DRUGMATRIX: Adrenergic beta3 radioligand binding (ligand: [125I] Cyanopindolol); type: cell membranes, Membrane; details: hek293; Not Active = under 50% inhibition at 10 µM
[2] = DRUGMATRIX: Calcium Channel Type L, Phenylalkylamine radioligand binding (ligand: [3H] (-)-Desmethoxyverapamil (D-888)); type: cell membranes, Rattus norvegicus, Wistar, Brain, Membrane; details: Not Active = under 50% inhibition at 10 µM
[3] = target: C-C chemokine receptor type 5 (Homo sapiens, UniProt P51681); type: cell membranes, HEK293, Membrane; details: hek293; also: in other assays of this panel Not Active means under 50% inhibition at 10 µM
D(1A) dopamine receptor = D(1A) dopamine receptor (Homo sapiens, UniProt P21728); assay: DRUGMATRIX: Dopamine D1 radioligand binding (ligand: [3H] SCH-23390); type: cell membranes, Membrane; details: cho; Not Active = under 50% inhibition at 10 µM
[4] = target: T1, Amine oxidase [flavin-containing] A (Homo sapiens, UniProt P21397); assay: DRUGMATRIX: Monoamine Oxidase MAO-A enzyme inhibition (substrate: Kynuramine); design: species or system BTI-TN-5B1-4; details: bti-tn-5b1-4; Not Active = under 50% inhibition at 10 µM
T1 sequence (P21397 whole entry): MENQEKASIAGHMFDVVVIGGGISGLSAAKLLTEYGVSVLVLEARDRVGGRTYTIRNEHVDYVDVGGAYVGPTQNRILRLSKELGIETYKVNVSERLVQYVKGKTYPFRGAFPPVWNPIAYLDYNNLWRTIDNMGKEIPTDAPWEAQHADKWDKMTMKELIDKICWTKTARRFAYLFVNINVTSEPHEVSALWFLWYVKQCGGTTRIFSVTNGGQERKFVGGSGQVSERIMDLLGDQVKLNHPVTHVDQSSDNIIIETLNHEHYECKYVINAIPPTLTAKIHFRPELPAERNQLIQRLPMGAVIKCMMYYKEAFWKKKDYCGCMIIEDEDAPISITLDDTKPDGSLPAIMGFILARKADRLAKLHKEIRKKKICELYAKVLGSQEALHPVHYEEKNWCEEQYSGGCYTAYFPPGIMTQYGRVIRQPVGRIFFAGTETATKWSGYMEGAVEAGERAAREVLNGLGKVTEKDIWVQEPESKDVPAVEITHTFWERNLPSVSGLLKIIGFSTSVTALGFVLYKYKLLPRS

Mu-type opioid receptor = Mu-type opioid receptor (Homo sapiens, UniProt P35372); assay: DRUGMATRIX: Opiate mu (OP3, MOP) radioligand binding (ligand: [3H] Diprenorphine); type: cell membranes, CHO-K1, Membrane; details: cho-k1; Not Active = under 50% inhibition at 10 µM
[5] = DRUGMATRIX: Phosphodiesterase PDE4 enzyme inhibition (substrate: [3H]cAMP + cAMP); details: u-937; Not Active = under 50% inhibition at 10 µM
[6] = target: Protein kinase C alpha type (Homo sapiens, UniProt P17252); type: cell-based; details: sf9;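 also: inhibition of PKCalpha kinase activity measured in an enzyme assay with histone as the phosphorylation substrate; in other assays of this panel Not Active means under 50% inhibition at 10 µM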
[7] = target: Mitogen-activated protein kinase 14 (Homo sapiens, UniProt Q16539); design: species or system Escherichia coli;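 also: inhibition of p38alpha enzyme activity in a biochemical kinase assay, with myelin basic protein serving as substrate; in other assays of this panel Not Active means under 50% inhibition at 10 µM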
[8] = target: Receptor tyrosine-protein kinase erbB-2 (Homo sapiens, UniProt P04626); assay: biochemical; type: cell-based, Insect cells; details: insect cells;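 also: inhibition of HER2 kinase enzyme activity, measured with Poly(Glu:Tyr) as the phosphorylation substrate; in other assays of this panel Not Active means under 50% inhibition at 10 µM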
Adenosine receptor A3 = target: T2, Adenosine receptor A3 (Homo sapiens, UniProt P0DMS8); type: cell membranes, CHO-K1, Membrane; details: cho-k1
T2 sequence (P0DMS8 whole entry): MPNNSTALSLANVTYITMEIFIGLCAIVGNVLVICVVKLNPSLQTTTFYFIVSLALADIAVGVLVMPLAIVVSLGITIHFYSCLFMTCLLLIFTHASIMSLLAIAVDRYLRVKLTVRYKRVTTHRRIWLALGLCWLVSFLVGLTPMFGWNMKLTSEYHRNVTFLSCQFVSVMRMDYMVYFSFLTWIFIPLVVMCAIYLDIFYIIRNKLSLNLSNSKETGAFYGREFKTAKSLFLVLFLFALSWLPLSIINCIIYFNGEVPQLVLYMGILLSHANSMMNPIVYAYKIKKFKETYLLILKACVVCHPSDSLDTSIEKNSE

D(1A) dopamine receptor, sequence (P21728 whole entry): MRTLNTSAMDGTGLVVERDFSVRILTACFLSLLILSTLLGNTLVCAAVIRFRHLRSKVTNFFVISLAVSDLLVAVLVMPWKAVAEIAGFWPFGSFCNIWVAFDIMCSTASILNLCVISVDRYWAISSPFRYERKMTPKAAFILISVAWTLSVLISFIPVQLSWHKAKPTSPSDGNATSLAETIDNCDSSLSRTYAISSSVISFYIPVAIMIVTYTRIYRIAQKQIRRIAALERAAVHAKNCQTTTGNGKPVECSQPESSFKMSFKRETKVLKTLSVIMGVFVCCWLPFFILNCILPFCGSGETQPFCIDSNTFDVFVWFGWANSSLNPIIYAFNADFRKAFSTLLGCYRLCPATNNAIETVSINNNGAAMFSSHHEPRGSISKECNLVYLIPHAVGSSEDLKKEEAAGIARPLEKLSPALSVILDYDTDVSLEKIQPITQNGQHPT
Beta-3 adrenergic receptor, sequence (P13945 whole entry): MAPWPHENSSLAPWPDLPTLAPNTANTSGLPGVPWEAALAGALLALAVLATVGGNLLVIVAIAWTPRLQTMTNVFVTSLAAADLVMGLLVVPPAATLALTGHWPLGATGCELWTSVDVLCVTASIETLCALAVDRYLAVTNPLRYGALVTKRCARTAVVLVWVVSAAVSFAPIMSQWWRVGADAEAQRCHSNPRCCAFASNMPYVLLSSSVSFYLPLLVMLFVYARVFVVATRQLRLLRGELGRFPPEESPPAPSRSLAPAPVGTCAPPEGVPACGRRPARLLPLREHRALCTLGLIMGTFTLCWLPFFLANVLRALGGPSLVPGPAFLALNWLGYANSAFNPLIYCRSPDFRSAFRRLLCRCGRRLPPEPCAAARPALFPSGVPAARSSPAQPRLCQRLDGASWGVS
Mu-type opioid receptor, sequence (P35372 whole entry): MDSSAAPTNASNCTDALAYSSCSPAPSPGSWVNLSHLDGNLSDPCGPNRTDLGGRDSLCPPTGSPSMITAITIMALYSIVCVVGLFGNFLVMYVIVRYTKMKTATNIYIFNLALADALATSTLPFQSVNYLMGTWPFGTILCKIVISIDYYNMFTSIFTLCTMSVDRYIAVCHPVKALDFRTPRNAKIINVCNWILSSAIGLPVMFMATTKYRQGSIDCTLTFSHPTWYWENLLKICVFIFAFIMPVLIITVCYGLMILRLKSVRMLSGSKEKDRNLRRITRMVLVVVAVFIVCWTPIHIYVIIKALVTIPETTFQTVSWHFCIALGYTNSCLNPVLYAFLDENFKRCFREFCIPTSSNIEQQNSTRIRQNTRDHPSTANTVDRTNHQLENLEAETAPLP
C-C chemokine receptor type 5, sequence (P51681 whole entry): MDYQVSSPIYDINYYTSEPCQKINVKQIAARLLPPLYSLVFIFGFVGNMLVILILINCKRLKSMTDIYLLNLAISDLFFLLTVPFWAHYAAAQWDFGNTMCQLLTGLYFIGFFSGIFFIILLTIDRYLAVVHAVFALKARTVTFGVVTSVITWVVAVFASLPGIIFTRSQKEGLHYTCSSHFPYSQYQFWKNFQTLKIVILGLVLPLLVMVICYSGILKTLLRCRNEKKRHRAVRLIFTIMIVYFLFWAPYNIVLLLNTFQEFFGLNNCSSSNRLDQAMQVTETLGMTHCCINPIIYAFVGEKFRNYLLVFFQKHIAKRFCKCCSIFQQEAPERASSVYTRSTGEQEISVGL
Receptor tyrosine-protein kinase erbB-2, sequence (P04626 whole entry): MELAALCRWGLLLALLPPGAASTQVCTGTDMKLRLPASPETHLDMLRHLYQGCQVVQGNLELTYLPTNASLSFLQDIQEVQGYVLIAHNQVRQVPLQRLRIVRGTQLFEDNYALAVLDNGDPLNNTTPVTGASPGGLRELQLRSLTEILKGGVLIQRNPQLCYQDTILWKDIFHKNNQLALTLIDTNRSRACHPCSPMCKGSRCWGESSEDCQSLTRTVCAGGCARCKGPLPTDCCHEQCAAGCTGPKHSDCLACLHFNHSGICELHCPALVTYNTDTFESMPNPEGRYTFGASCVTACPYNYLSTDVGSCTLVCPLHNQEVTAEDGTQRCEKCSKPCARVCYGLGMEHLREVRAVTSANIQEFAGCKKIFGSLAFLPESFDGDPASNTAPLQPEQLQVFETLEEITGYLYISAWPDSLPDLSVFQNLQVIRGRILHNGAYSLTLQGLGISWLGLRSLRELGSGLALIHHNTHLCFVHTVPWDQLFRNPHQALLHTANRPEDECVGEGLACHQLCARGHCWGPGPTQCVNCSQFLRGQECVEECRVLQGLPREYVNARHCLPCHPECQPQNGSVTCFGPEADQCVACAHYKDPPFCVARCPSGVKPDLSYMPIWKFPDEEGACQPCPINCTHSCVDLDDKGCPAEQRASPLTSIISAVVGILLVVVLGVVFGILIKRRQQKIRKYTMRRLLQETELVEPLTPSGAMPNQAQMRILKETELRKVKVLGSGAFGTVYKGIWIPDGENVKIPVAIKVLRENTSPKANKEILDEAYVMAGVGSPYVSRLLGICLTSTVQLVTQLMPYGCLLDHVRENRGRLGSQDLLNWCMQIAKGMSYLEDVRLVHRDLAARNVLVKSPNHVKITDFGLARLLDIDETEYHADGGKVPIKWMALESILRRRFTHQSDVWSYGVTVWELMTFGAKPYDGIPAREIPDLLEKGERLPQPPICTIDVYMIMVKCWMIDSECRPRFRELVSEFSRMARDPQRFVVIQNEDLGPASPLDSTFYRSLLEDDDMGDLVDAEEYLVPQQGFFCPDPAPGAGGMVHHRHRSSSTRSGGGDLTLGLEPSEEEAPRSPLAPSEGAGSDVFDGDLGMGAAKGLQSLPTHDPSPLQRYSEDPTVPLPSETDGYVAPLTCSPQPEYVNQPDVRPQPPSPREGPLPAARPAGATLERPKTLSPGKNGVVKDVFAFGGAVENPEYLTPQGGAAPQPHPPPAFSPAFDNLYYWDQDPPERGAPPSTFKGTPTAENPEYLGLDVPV
Mitogen-activated protein kinase 14, sequence (Q16539 whole entry): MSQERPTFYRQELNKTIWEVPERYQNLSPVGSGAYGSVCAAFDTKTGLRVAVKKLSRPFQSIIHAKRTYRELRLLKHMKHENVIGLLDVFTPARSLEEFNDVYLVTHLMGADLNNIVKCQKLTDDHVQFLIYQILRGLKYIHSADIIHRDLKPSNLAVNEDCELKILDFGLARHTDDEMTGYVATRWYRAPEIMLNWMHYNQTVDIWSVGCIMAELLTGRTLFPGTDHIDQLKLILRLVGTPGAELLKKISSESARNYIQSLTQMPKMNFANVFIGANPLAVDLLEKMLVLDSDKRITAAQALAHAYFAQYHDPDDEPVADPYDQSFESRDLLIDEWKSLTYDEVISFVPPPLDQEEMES

Row | Compound | IC50 [1] | IC50 [2] | Ki [2] | IC50 [3] | IC50 (D(1A) dopamine receptor) | IC50 [4] | IC50 (Mu-type opioid receptor) | IC50 [5] | Ki [5] | IC50 [6] | IC50 [7] | IC50 [8] | IC50 (Adenosine receptor A3) | pIC50 ([7]; read-out: IC50)
1 | CC1=C(CC(=O)O)c2cc(F)ccc2/C1=C\c1ccc([S+](C)[O-])cc1 (stereo not drawn) | Not Active | Not Active | Not Active | Not Active | Not Active | Not Active | Not Active | Not Active | Not Active | Not Active | Not Active | Not Active | Not Active | 
2 | N[C@H](CSC(=S)NCc1ccccc1)C(=O)O | Not Active | Not Active | Not Active | Not Active | Not Active | Not Active | Not Active | Not Active | Not Active | Not Active | Not Active | Not Active | Not Active | 
3 | CC(=O)N[C@@H]1[C@H](Oc2c3cc4cc2Oc2ccc(cc2Cl)[C@@H](O[C@@H]2O[C@@H](CO)[C@@H](O)[C@H](O)[C@@H]2NC(C)=O)[C@@H]2NC(=O)[C@H](NC(=O)[C@@H]4NC(=O)[C@H]4NC(=O)[C@@H](Cc5ccc(c(Cl)c5)O3)NC(=O)[C@H](N)c3ccc(O)c(c3)Oc3cc(O)cc4c3)c3ccc(O)c(c3)-c3c(O[C@H]4O[C@H](CO)[C@@H](O)[C@@H](O)[C@@H]4O)cc(O)cc3[C@@H](C(=O)O)NC2=O)O[C@@H](CO)[C@@H](O)[C@@H]1O | Not Active | Not Active | Not Active | Not Active | Not Active | Not Active | Not Active | Not Active | Not Active | Not Active | Not Active | Not Active | Not Active | 
4 | Clc1ccc2c(c1)C(N1CCNCC1)=Nc1ccccc1O2 [AMOXAPINE] | Not Active |  |  | Not Active |  | Not Active | Not Active |  |  | Not Active | Not Active | Not Active | Not Active | 
5 | COc1cc2c(c(OC)c1OC)-c1ccc(OC)c(=O)cc1[C@@H](NC(C)=O)CC2 [COLCHICINE] | Not Active |  |  | Not Active |  | Not Active |  |  |  | Not Active | Not Active | Not Active | Not Active | 
6 | CN1CCC(=C2c3ccccc3C=Cc3ccccc32)CC1 [CYPROHEPTADINE] | Not Active |  |  | Not Active |  | Not Active | Not Active |  |  | Not Active | Not Active | Not Active | Not Active | 
7 | CC/C(=C(/CC)c1ccc(O)cc1)c1ccc(O)cc1 [DIETHYLSTILBESTROL] | Not Active |  |  | Not Active |  | Not Active |  |  |  | Not Active |  | Not Active |  | 4.48
8 | CC(=O)N1CCN(c2ccc(OCC3COC(Cn4ccnc4)(c4ccc(Cl)cc4Cl)O3)cc2)CC1 (stereo not drawn) [KETOCONAZOLE] | Not Active | Not Active | Not Active | Not Active | Not Active | Not Active | Not Active | Not Active | Not Active | Not Active | Not Active | Not Active | Not Active | 
9 | C=CCN1CC[C@]23c4c5ccc(O)c4O[C@H]2C(=O)CC[C@@]3(O)[C@H]1C5 [NALOXONE] | Not Active |  |  | Not Active |  | Not Active |  |  |  | Not Active | Not Active | Not Active | Not Active | 
